Data from PMC3498381, “Isolated Toll-like Receptor Transmembrane Domains Are Capable of Oligomerization” (PLoS ONE, 2012).
No end group written: not given here.

Columns and labels:
[1] = system: TLR1 TMD (functional ToxR chimera); assay: Dominant-negative (heterotypic) ToxR assay, TLR1 as dominant phenotype; type: cell-based; conditions: Miller units normalized to poly-Leu* = 1 and corrected for expression, lower = stronger interaction, N in table
Description: (§1) Next, we investigated heterotypic interactions of the TLRs. We specifically studied TLR2, TLR1, and TLR6 because they are cell surface expressed receptors known to form functional heterodimers. To determine the ability of these three cell surface TLRs to have heterotypic interactions within its family, we studied the ability of the TLR1, TLR2, and TLR6 TMDs to interact with the TLR receptors also expressed at the cell surface; namely, TLR1, TLR2, TLR4, TLR5, TLR6, and TLR10. We monitored these interactions using a dominant-negative ToxR assay (Fig. S1B) which works by having a second TMD expressed with a non-functional ToxR* intracellular domain. This ToxR* domain is incapable of binding the ctx promoter making any interactions with this second expressed TMD unable to produce the reporter enzyme. As such, any interaction between the functional ToxR and non-functional ToxR* TMDs will result in a reduction in signal output.
(§2) Figure 3 Cell- Surface Toll-like Recptor Heterotypic Interactions. (A) A dominant-negative ToxR assay was used to study heterotypic interactions of the cell-surface TLRs. Two TLR TMDs were encoded in the FHK12 E.coli reporter strain, one with a functional ToxR domain (dominant phenotype) and one with a nonfunctional ToxR* domain (negative phenotype). Interaction between the two different TMDs leads to a reduction in signal from that seen for homotypic interactions. The TMDs for GpA, TLR1, TLR2, and TLR6 were used with the functional ToxR domain while TMDs for poly-Leucine, TMD5, integrin αIIb, TLR1, TLR2, TLR4, TLR5, TLR6, and TLR10 were used with the nonfunctional ToxR* domain. Interactions were most prominent for the TLRs known to have heterotypic interactions – TLR2-TLR1 and TLR2-TLR6. […] We also saw interaction with the same TMD further validating the homotypic interactions. […] Each dominant phenotype was done in 3 technical replicates with each negative phenotype and >6 measurements made for each replicate. Error bars depict the standard error of the mean (n- Tables S3, S5, S7, S9). Western blots staining for MBP were performed to monitor expression levels of the constructs with the upper band being functional ToxR chimeras and the lower band being nonfunctional ToxR* chimeras – (B) GpA, (C) TLR1, (D) TLR2, and (E) TLR6. Significant differences for the same dominant phenotype were determined by use of the Tukey-Kramer test.
(§3) For heterotypic interactions one plasmid containing a functional ToxR domain (200 ng) and a second plasmid containing a non-functional ToxR* domain (200 ng) were co-transformed into chemically competent FHK12 E. coli (400 µL) by incubating on ice for 30 min, heat shock at 42°C for 90 s, incubation on ice for 2 min, and addition of SOC media (1600 µL) followed by incubation with shaking for 1 h at 37°C. This transformation mixture (50 µL) was then used to spread LB-agar plates containing cholaramphenicol (30 µg/mL), kanamycin (33 µg/mL), and ampicillin (100 µg/mL) and grown overnight at 37°C. Single colonies were selected from the plates and grown in 5 mL LB media containing cholaramphenicol (30 µg/mL), kanamycin (33 µg/mL), ampicillin (100 µg/mL), and arabinose (0.0025%) overnight (16–20 h) with shaking at 37°C. Analysis of activity was monitored as described in homotypic ToxR assays. Western blotting was done in the same manner as the homotypic ToxR assay with one band appearing for the functional ToxR construct and a second band for the nonfunctional ToxR* construct. Data were normalized to poly-Leu* Miller Units and corrected for varying protein expression levels using ImageJ (NIH) as previously reported.

[2] = system: TLR2 TMD (functional ToxR chimera); assay: Dominant-negative (heterotypic) ToxR assay, TLR2 as dominant phenotype; type: cell-based; conditions: Miller units normalized to poly-Leu* = 1 and corrected for expression, lower = stronger interaction, N in table
Description: as §1, §2, §3

[3] = system: GpA TMD (functional ToxR chimera); assay: Dominant-negative (heterotypic) ToxR assay, GpA as dominant phenotype; type: cell-based; conditions: Miller units normalized to poly-Leu* = 1 and corrected for expression, lower = stronger interaction, N in table
Description: as §1, §2, §3

[4] = system: homotypic interaction of the same TMD peptide; assay: Fluorescence self-quenching assay in C14-betaine micelles; type: binding, human; conditions: from molar fraction Kd compared with known ranges of TMD interactions
Description: An apparent dissociation constant (Kd) can be determined from self-quenching interactions by varying the amount of detergent present for a fixed peptide concentration. At low detergent:peptide ratios, the TMD peptides are driven to interact; however, gradually increasing the amount of detergent present at a fixed peptide concentration will cause the TMD interactions to dissociate. Then, at some critical detergent:peptide ratio, the interaction is completely dissociated and the fluorescence plateaus. […] Fitting the data results in apparent dissociation constants, Kd, in terms of a dimensionless detergent:peptide ratio (molar fraction) as this ratio, instead of the bulk concentration, is more relevant to TMD peptide association. For TLR1 the Kd was determined to be 645.63±49.08, for TLR6 the Kd was determined to be 883.57±86.92 and for TLR2 the Kd was determined to be 4475.5±637.9. […]
Figure 5 TLR1, TLR2, and TLR6 Homotypic Interactions by Fluorescence Self-Quenching. […] Homotypic interaction affinity was studied by changes of fluorescence intensity at different molar ratios of detergent to peptide. […] Increasing detergent competes off the TMD-TMD interactions and leads to an increase in fluorescence signal. […] Kd were determined using the Hill Equation.
Fluorescence self-quenching was used to directly probe the homotypic interactions of the synthetic peptides. […] Peptide concentrations of these samples were determined by UV-VIS and adjusted with the corresponding C14-Betaine only buffers such that all peptide concentrations were 1 µM. […] Samples were allowed to equilibrate in the 96-well plate at room temperature for 2 h before measurement using a Beckman-Coulter DTX 880 Multimode Detector plate reader. […] Each data point is blank corrected for the corresponding C14-Betaine only signal and are the average of 3 different readings. To scale the data from 0 to 1, the initial data point was averaged and set to be zero by subtracting from all further readings, and the data points that are in the plateau region were averaged and then all values were divided by this average to get a maximum of 1. […]

Substance | Mean TLR1-TMD* heterotypic interaction (ToxR signal) [1] | Mean TLR2-TMD* heterotypic interaction (ToxR signal) [2] | Mean GpA-TMD* heterotypic interaction (ToxR signal) [3] | Classification of homotypic interaction strength [4]
TLR2*: TLR2 TMD chimera with nonfunctional ToxR* domain (negative phenotype) (GNRASALVSGMCCALFLLILLTGVLCGSLIN; cysteine pairing not given here; also: fused to non-functional ToxR* (S87H) and maltose binding protein, ends not given here) | 0.3243 | 0.1930 | 0.7284 | moderately strong
TLR6*: TLR6 TMD chimera with nonfunctional ToxR* domain (negative phenotype) (GNRASITLLIVTIGATMLVLAVTVTSLCIYLGSLIN; also: fused to non-functional ToxR* (S87H) and maltose binding protein, ends not given here) | 0.3349 | 0.2588 | 1.0451 | weak
TLR1*: TLR1 TMD chimera with nonfunctional ToxR* domain (negative phenotype) (GNRASITLLIVTIVATMLVLAVTVTSLCSYLGSLIN; also: fused to non-functional ToxR* (S87H) and maltose binding protein, ends not given here) | 0.3722 | 0.2198 | 0.8934 | weak
